Data taken from US8728797B2, “Yeast membrane protein expression system and its application in drug screening” (priority 2001, dated 2014).
Marks after values point to notes of the source that are not given here.

Experiments:
[1] = system: C. tropicalis IFO0618; assay: Checkerboard chemosensitisation to fluconazole; assay type: cell-based
Description: (§1) Checkerboard drug susceptibility assays were used to measure the chemosensitisation of cells to fluconazole by test compounds such as Pdr5p inhibitors. Fluconazole concentration in the CSM-URA medium was varied in one dimension (between 0 and 80 μg/ml) and the concentration of the test compound was varied in the second dimension (between 0 and 40 μM). Cell inocula, growth conditions and the optical determination of growth were identical to standard liquid MIC determinations. The assays were conducted in 6 by 6 well arrays centred in a 96 well microtitre plate using buffered CSM-URA medium at pH 7.0, with fluconazole and/or peptide included in each well at the indicated concentration.

[2] = system: S. cerevisiae 4 (CgPdh1p); assay: Checkerboard chemosensitisation to fluconazole; assay type: cell-based
Description: as §1

[3] = system: C. glabrata CBS138; assay: Checkerboard chemosensitisation to fluconazole; assay type: cell-based
Description: as §1

[4] = system: C. albicans FR2 (Ben^Rp); assay: Checkerboard chemosensitisation to fluconazole; assay type: cell-based
Description: as §1

[5] = system: S. cerevisiae 27A (CaCdr2p); assay: Checkerboard chemosensitisation to fluconazole; assay type: cell-based
Description: as §1

[6] = system: C. dubliniensis CD36; assay: Checkerboard chemosensitisation to fluconazole; assay type: cell-based
Description: as §1

[7] = system: S. cerevisiae 1B (CgCdr1p); assay: Checkerboard chemosensitisation to fluconazole; assay type: cell-based
Description: as §1

[8] = system: S. cerevisiae AD12345678u-; assay: Checkerboard chemosensitisation to fluconazole; assay type: cell-based
Description: as §1

[9] = system: C. krusei B2399; assay: Checkerboard chemosensitisation to fluconazole; assay type: cell-based
Description: as §1

[10] = system: S. cerevisiae AD124567 (Pdr5p); assay: Checkerboard chemosensitisation to fluconazole; assay type: cell-based
Description: (A) Checkerboard drug susceptibility assay of AD124567 in the presence of the indicated concentrations of fluconazole and KN20. (B) Disk drug susceptibility assay of AD124567. This assay was conducted, as described in Materials and methods for example 4, in the absence or presence of fluconazole (120 μg/ml), and in the presence of (1) KN0 (47 nanomole), (2) KN20 (47 nanomole) or (0) control amounts of DMSO applied to disks
as §1

[11] = target: T1, Cdr1p ATPase (Candida albicans, UniProt P43071, E1416A/I916V/K1177E/L1021S/Q214E/T842S/Y427F); assay: Oligomycin sensitive ATPase/NTPase activity of AD1002 plasma membranes; assay type: biochemical, C. albicans
T1 construct: expressed in transfected cells; host or cells: S. cerevisiae AD1-8u- with pKEN1002 integrated at the PDR5 locus (strain AD1002), plasma membrane fraction
T1 sequence (P43071 whole entry Q214E/Y427F/T842S/I916V/L1021S/K1177E/E1416A): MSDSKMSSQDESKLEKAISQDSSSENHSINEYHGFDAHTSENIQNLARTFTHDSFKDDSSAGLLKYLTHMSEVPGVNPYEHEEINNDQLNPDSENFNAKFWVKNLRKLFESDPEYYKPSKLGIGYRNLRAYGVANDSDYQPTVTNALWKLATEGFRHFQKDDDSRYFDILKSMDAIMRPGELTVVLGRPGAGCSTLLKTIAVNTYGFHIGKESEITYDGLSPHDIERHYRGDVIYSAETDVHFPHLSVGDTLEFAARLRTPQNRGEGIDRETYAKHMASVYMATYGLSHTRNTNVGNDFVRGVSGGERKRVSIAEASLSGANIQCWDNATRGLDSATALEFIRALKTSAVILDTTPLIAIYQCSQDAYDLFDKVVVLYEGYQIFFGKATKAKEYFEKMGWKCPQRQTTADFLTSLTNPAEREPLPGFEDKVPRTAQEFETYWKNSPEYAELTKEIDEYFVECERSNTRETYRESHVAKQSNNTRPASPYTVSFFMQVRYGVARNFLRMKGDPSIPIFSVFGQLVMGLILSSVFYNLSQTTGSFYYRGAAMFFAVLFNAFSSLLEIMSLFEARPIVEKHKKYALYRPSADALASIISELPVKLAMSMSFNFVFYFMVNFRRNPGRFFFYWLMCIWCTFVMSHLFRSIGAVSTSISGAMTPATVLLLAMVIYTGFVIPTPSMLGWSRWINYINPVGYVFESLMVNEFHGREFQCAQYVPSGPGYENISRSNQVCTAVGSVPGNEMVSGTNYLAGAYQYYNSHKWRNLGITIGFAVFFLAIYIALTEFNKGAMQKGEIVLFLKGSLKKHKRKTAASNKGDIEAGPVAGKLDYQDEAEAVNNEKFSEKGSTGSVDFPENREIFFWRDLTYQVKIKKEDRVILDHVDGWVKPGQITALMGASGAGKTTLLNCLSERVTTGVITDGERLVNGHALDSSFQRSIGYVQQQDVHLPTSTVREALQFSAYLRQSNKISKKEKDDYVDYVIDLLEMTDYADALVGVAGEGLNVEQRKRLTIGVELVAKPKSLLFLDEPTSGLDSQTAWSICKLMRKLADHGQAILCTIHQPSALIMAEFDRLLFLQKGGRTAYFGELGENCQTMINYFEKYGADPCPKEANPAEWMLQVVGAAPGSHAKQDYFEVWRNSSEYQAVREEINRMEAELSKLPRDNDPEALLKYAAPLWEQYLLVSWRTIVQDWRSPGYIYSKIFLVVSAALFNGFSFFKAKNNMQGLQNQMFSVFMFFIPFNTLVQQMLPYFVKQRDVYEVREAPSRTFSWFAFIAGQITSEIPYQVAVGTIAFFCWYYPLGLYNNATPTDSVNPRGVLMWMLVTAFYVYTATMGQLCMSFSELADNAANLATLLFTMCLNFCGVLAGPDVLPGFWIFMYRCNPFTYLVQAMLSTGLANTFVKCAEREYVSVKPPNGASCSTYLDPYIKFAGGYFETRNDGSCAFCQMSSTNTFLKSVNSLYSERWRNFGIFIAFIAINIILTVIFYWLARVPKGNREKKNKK
Description: Membrane fractions were isolated from S. cerevisiae AD1002 (▪) or parental AD1-8u^− cells (●). ATPase assays were carried out at 30° C. for 30 min, as described in Materials and methods for Example 2. The oligomycin-sensitive activity was determined as the difference in ATPase activity in the presence and absence of 20 μM oligomycin. […] The results are the means (+/−SD) of four determinations carried out on two membrane preparations.
(B) Inhibition profile with KN20 on the oligomycin-sensitive Cdr1p ATPase activity of plasma membranes from AD1002 minus the oligomycin-sensitive ATPase activity of plasma membranes from the isogenic AD1-8u^− strain.
Yeast were grown in YEPD, pH 5.5 at 30° C. until they reached late-exponential phase of growth (OD600 nm=7), washed twice in ice-cold distilled water, and incubated on ice for 30 min to minimize glucose-stimulated Pma1p activity. Cells were resuspended in homogenising medium (50 mM Tris pH 7.5, 2 mM EDTA and 1 mM phenylmethylsulfonyl fluoride) and disrupted using a Braun Homogeniser. Cell debris and unbroken cells were removed by centrifuging at 2,000×g at 4° C. for 10 min. A crude membrane fraction was isolated from the cell-free supernatant by centrifuging at 30,000×g at 4° C. for 45 min. Plasma membranes were prepared by centrifugation of the supernatant obtained after selective precipitation of mitochondria at pH 5.2 as described previously (Goffeau, A. and Dufour, J. P., 1988). The plasma membranes were resuspended in 10 mM Tris pH 7.0, 0.5 mM EDTA and 20% [v/v] glycerol and stored at −80° C. Protein was determined using a micro-Bradford (Bio-Rad Laboratories, Hercules, Calif. [Bradford, M. M., 1976]) assay with gamma-globulin as standard. Nucleotide triphosphatase activity was measured by incubating the plasma membrane fractions (10 μg) at 30° C. in a final volume of 120 μl containing 6 mM NTP, 7 mM MgSO4 in 59 mM MES-Tris buffer pH 6.0-8.0. To eliminate possible contributions from nonspecific phosphatases, vacuolar, or mitochondrial ATPases, 0.2 mM ammonium molybdate, 50 mM KNO3 and 10 mM NaN3, respectively, were included in assays (Monk B C, et al, 1991). Other ATPase inhibitors (20 μM oligomycin, 20 μM aurovertin B or 100 μM vanadate were added to the reaction where indicated. After 30 min the reaction was stopped by adding 130 μl of a solution containing 1% (w/v) SDS, 0.6 M H2SO4, 1.2% (w/v) ammonium molybdate and 1.6% (w/v) ascorbic acid. Inorganic phosphate released from NTPs was measured at 750 nm after 10 min incubation at room temperature.

[12] = system: C. albicans ATCC10261; assay: Checkerboard chemosensitisation to fluconazole; assay type: cell-based
Description: (§2) (A) Checkerboard drug susceptibility assay of AD1002. This assay was conducted as described in Materials and methods in the presence of the indicated concentrations of fluconazole and KN20. (B) Disk drug susceptibility assay of AD1002. This assay was conducted, as described in Materials and methods for Example 4, in the absence or presence of 5 μg/ml fluconazole, with (1) KN0 (12 nanomole), (2) KN20 (12 nanomole) or (0) control amounts of DMSO applied to the disks. (C) Checkerboard drug susceptibility assay of ATCC 10261. This assay was conducted, as described in Material and methods for Example 4, in the presence of the indicated concentrations of fluconazole and KN20. D indicates cell death as measured by a failure to recover any colony forming units when samples from microtitre plate wells were cultured on solid YPD medium.
as §1

[13] = system: S. cerevisiae AD1002 (CaCdr1p); assay: Checkerboard chemosensitisation to fluconazole; assay type: cell-based
Description: as §2, §1

OC(Cn1cncn1)(Cn1cncn1)c1ccc(F)cc1F [fluconazole]
Chemosensitising concentration FCZ [1]: 10 µg/mL | Chemosensitising concentration FCZ ([2]; with KN20): 1.25 µg/mL | Chemosensitising concentration FCZ [3]: 20 µg/mL | Chemosensitising concentration FCZ ([4]; with KN20): 8 µg/mL | Chemosensitising concentration FCZ ([5]; with KN20): 20 µg/mL | Chemosensitising concentration FCZ [6]: 0.31 µg/mL | Chemosensitising concentration FCZ ([7]; with KN20): 40 µg/mL | Chemosensitising concentration FCZ [8]: 0.125 µg/mL | Chemosensitising concentration FCZ [9]: 80 µg/mL | Chemosensitising concentration FCZ [10]: 60 µg/mL | effect on oligomycin sensitive Cdr1p ATPase activity ([11]; in vitro): does not affect | Chemosensitising concentration FCZ [12]: 2 µg/mL | Chemosensitising concentration FCZ ([13]; AD1002 (CaCdr1p), with KN20): 10 µg/mL

D-octapeptide NH2-Asn-Trp-Trp-Lys-Val-Arg-Arg-Arg-CONH2 with a single 4-methoxy-2,3,6-trimethylbenzenesulphonyl (Mtr) substituent on one tryptophan sidechain; Pdr5p inhibitor [KN20]
Chemosensitising concentration KN20 ([1]; C. tropicalis IFO0618): 10 µM | Fold-sensitisation by KN20 (For FCZ MIC) ([1]; C. tropicalis IFO0618, resistant tail eliminated): 16^a fold | Chemosensitising concentration KN20 [2]: 20 µM | Fold-sensitisation by KN20 (For FCZ MIC) [2]: 16 fold | Chemosensitising concentration KN20 ([3]; C. glabrata CBS138): 40 µM | Fold-sensitisation by KN20 (For FCZ MIC) ([3]; C. glabrata CBS138): 4 fold | Chemosensitising concentration KN20 [4]: 20 µM | Fold-sensitisation by KN20 (For FCZ MIC) [4]: 4 fold | Chemosensitising concentration KN20 [5]: 20 µM | Fold-sensitisation by KN20 (For FCZ MIC) [5]: 4 fold | Chemosensitising concentration KN20 ([6]; C. dubliniensis CD36): 80 µM | Fold-sensitisation by KN20 (For FCZ MIC) ([6]; C. dubliniensis CD36, resistant tail eliminated): 64.5^a fold | Chemosensitising concentration KN20 [7]: 15 µM | Fold-sensitisation by KN20 (For FCZ MIC) [7]: 8 fold | Chemosensitising concentration KN20 ([8]; S. cerevisiae AD12345678u-): 7.5 µM | Fold-sensitisation by KN20 (For FCZ MIC) ([8]; S. cerevisiae AD12345678u-): 2 fold | Chemosensitising concentration KN20 ([9]; C. krusei B2399): 80 µM | Fold-sensitisation by KN20 (For FCZ MIC) ([9]; C. krusei B2399): 2.5 fold | Chemosensitising concentration KN20 ([10]; AD124567 (Pdr5p)): 20 µM | Fold-sensitisation by KN20 (For FCZ MIC) ([10]; AD124567 (Pdr5p)): 10 fold | KN20 concentration that chemosensitised the Pdr5p overexpressing strain to fluconazole ([10]; pH 7): 30 µM | IC50 ([11]; AD1002 plasma membranes, read-out: 150 for oligomycin sensitive ATPase activity): ~8 µM | Chemosensitising concentration KN20 ([12]; C. albicans ATCC10261): 80 µM | Fold-sensitisation by KN20 (For FCZ MIC) ([12]; C. albicans ATCC10261, resistant tail eliminated): 64^a fold | growth of AD1002 with KN20 alone ([13]; 10 μM KN20, without fluconazole, pH 7.0): completely resistant | growth of AD1002 with fluconazole plus KN20 ([13]; 10 μg/ml fluconazole plus 10 μM KN20): completely abolished growth | growth of AD1002 with KN20 alone ([13]; 20 μM peptide alone, 48 h): did not affect overall growth | Chemosensitising concentration KN20 ([13]; AD1002 (CaCdr1p)): 10 µM | Fold-sensitisation by KN20 (For FCZ MIC) ([13]; AD1002 (CaCdr1p)): 4 fold
